Test results: patent US20100009970A1, “COMPOSITIONS AND METHODS FOR TREATMENT OF VIRAL DISEASES” (Combinatorx (Singapore) Pte. Ltd., priority 2008, published 2010)
Where two headings read alike, the source gives them in different places.

Legend:
[1] = tested on: Huh7 cells expressing a subgenomic RNA replicon of Con1 (genotype 1b) sequence origin; assay: microbe, parasite or virus in culture; details: Hepatitis C virus; for Emax: Huh-7, read-out: Max Effect@CC30 (inhibition)
in vitro = details: human
[2] = Huh-7, read-out: IC50 (uM) [SG]

SMILES	IC90 ([1]; Huh-7)	IC50 [1, 2]	CC50 (in vitro; CC50 (uM) [SG])	Emax [1]	IC50 ([1]; Huh-7)	CC50 (in vitro; CC50 (uM))
CSc1ccc(Oc2ccc(S(N)(=O)=O)cc2CN(C)CCCN(C)C)cc1C [Compound 94, 3-(((3-(dimethylamino)propyl)(methyl)amino)methyl)-4-(3-methyl-4-(methylthio)phenoxy)benzenesulfonamide]	7.38 µM	3.26 µM	15 µM			
CSc1ccc(Oc2ccc(Br)cc2CN(C)C)cc1 [Compound 41, 1-(5-bromo-2-(4-(methylthio)phenoxy)phenyl)-N,N-dimethylmethanamine]	28.8 µM	25.8 µM	> 50 µM	94.7%		
Cc1cc(Oc2ccc(S(N)(=O)=O)cc2CN(C)C)ccc1Br [Compound 61, 4-(4-bromo-3-methylphenoxy)-3-((dimethylamino)methyl)benzenesulfonamide]		12.1 µM	> 50 µM			
CSc1ccc(N2CN(C)Cc3cc(S(N)(=O)=O)ccc32)cc1C [Compound 107, 3-methyl-1-(3-methyl-4-(methylthio)phenyl)-1,2,3,4-tetrahydroquinazoline-6-sulfonamide]	12.8 µM	4.84 µM	> 50 µM			
O=C1CC[C@@H](c2ccc(Cl)c(Cl)c2)c2ccccc21 [4S-Sertraline Ketone, (S)-4-(3,4-dichlorophenyl)-3,4-dihydronaphthalen-1(2H)-one]		32.6 µM	> 50 µM	77%		
CSc1ccc(Oc2ccc(S(N)(=O)=O)cc2CO)cc1C [Compound 47, 3-(hydroxymethyl)-4-(3-methyl-4-(methylthio)phenoxy)benzenesulfonamide]		18.1 µM	> 50 µM	63.5%	18.1 µM	> 50 µM
OC1CC[C@@H](c2ccc(Cl)c(Cl)c2)c2ccccc21 (stereo partly drawn) [Alcohol Sertraline-P1, (S)-4-(3,4-dichlorophenyl)-1,2,3,4-tetrahydronaphthalen-1-ol]		24.5 µM	> 50 µM	89.2%		
CN[C@H]1CC[C@@H](c2ccc(Cl)c(Cl)c2)c2ccc(NS(=O)(=O)c3ccccc3)cc21 [N-((5S,8S)-5-(3,4-dichlorophenyl)-8-(methylamino)-5,6,7,8-tetrahydronaphthalen-2-yl)benzenesulfonamide]	3.83 µM	3.48 µM	3.91 µM		3.48 µM	3.91 µM
CN[C@H]1CC[C@@H](c2ccc(Cl)c(Cl)c2)c2ccc(N(C)C)cc21 [Sertraline A-Ring N,N-Dimethylamine, (1S,4S)-4-(3,4-dichlorophenyl)-N1,N7,N7-trimethyl-1,2,3,4-tetrahydronaphthalene-1,7-diamine]	5.82 µM	3.52 µM	6.22 µM	35.1%	3.52 µM	6.22 µM
CSc1ccc(Oc2ccc(S(N)(=O)=O)cc2CN2CCCN(C)CC2)cc1C [Compound 74, 3-((4-methyl-1,4-diazepan-1-yl)methyl)-4-(3-methyl-4-(methylthio)phenoxy)benzenesulfonamide]	16.1 µM	7.31 µM	35.9 µM			
CN[C@H]1CC[C@@H](c2ccc(Cl)c(Cl)c2)c2ccc(NC(=O)C3CCCC3)cc21 [N-((5S,8S)-5-(3,4-dichlorophenyl)-8-(methylamino)-5,6,7,8-tetrahydronaphthalen-2-yl)cyclopentanecarboxamide]	5.89 µM	4.02 µM	7 µM	22.9%	4.02 µM	7 µM
CNCc1cc(S(N)(=O)=O)ccc1Oc1ccc(SC)cc1 [Compound 43, 3-((methylamino)methyl)-4-(4-(methylthio)phenoxy)benzenesulfonamide]		32.7 µM	> 50 µM	73.7%		
CSc1ccc(Oc2ccc(N(C)C)cc2CN(C)C)cc1C [Compound 15, 3-((dimethylamino)methyl)-N,N-dimethyl-4-(3-methyl-4-(methylthio)phenoxy)aniline]		23 µM	38.7 µM			
